Among the data in PubChem BioAssay (NCI) are TGI and GI50 values, retold here.

Common to all, as to assay: NCI-60 cell line screen, 48 h
Assay [1] relates to DU-145 prostate.
Assay [2] has as its system MDA-MB-435.
Assay [3] relates to BT-549 breast.
For assay [4], the system named is CAKI-1 renal.
Assay [5] relates to SW-620 colon.
The test system of assay [6] is COLO 205 colon.
Assay [7] has as its system SK-OV-3 ovarian.
In assay [8] the test system is OVCAR-3 ovarian.
The subject of assay [9] is HCT-15 colon.
Assay [10] relates to CCRF-CEM leukemia.

“And” between values parts separate entries of the source, which are not always exact repeats. Equal values may be shown once.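 Assay format: 96-well plates, 48-hour exposure. Abbreviation: GI50, concentration required for 50% inhibition of growth. TGI is the concentration that stops growth completely.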

Consider `CCC1CCC2C3CC=C4CC(OC(C)=O)C(N)CC4(C)C3CCC12C` (configuration not stated), for which the TGI in [1] is 8.33 µM; in assay [2], 5.66 µM; in assay [3], 10.6 µM; in assay [4], 22.9 µM; in [5], 11.2 µM; in assay [6], 10 µM. In addition, the TGI in assay [7] stood at 24.1 µM; in [8], 10.5 µM; in assay [9], 12.5 µM; in assay [10] it was 10 µM.
Regarding `O=c1[nH]ccc2nc(N3CCC(O)CC3)nc(Nc3ccc(N4CCOCC4)cc3)c12`, the GI50 was 2.95 µM in assay [1]; 0.744 µM in [2]; 2.31 µM in [3]; 0.367 µM in assay [4]; 1.75 µM in assay [5]; 1.71 µM in [6]. The GI50 in assay [7] was 0.59 µM; in [8], 29.1 µM; in assay [9], 1.24 µM; in assay [10] it was 28.3 µM. The TGI in [1] is over 100 µM; in [2], over 100 µM; in [3] it was over 46.5 µM; in [4], over 100 µM; in [5], over 100 µM; in [6] it was 5.05 µM. Besides, the TGI in assay [7], in assay [8], in assay [9] and in [10] was over 100 µM in each case.
With `COc1cc(/C=C/C(=O)c2ccc(F)cc2)ccc1OCCCCOc1cc2c(cc1OC)C(=O)N1CCCC1C=N2` (configuration not stated), the GI50 in [1] was 0.994 µM; in assay [2], 2.71 µM; in assay [3], 0.855 µM; in [4], 1.12 µM; in [5], 0.481 µM; in assay [6] it was 2.11 µM. Further, the GI50 in [7] is 1.67 µM; in [8], 0.808 µM; in assay [9], 1.07 µM; in assay [10], 0.285 µM. Also, the TGI in [1] is 5.46 µM; in assay [2], 8.01 µM; in assay [4], 25.6 µM; in assay [6], 9.19 µM; in assay [7], over 44.5 µM; in [8], 2 µM. Also, the TGI is over 28.2 µM in [9] and 1.88 µM in assay [10].
As for `CS(=O)(=O)OCCCCOS(C)(=O)=O`, the GI50 in assay [1] is 774 µM; in [2], over 250 µM; in [3] it was over 250 µM; in assay [4], 305 µM; in assay [5] it was over 1000 µM; in assay [6], over 1000 µM. Moreover, the GI50 was 804 µM in [7], over 1000 µM in assay [8], over 903 µM in assay [9] and 214 µM in [10]. For the same molecule, the TGI is 250 µM and > 1000 µM in [1]; over 1000 µM in [2]; over 1000 µM in [3]; 212 µM and 980 µM in assay [4]; 250 µM and > 1000 µM in assay [5]; 250 µM and > 1000 µM in assay [6]. The TGI in assay [7] is over 1000 µM; in assay [8], over 1000 µM; in [9], 236 µM and > 1000 µM; in [10], 250 µM and > 877 µM.
Regarding `S=P(C1CCCCC1)(C1CCCCC1)C(c1cccnc1)N1CCCC1` (configuration not stated), the TGI was 29.8 µM in [1]; 33.6 µM in assay [2]; 35.6 µM in assay [3]; 31.9 µM in assay [4]; over 100 µM in assay [5]; 37.3 µM in [6]. Moreover, the TGI is over 100 µM in assay [7], over 100 µM in [8], over 100 µM in [9] and 36.3 µM in assay [10].
As to `O=C1C2=C(C(=O)c3c(O)ccc(O)c31)N(c1cccnc1)Cc1ccccc1O2`, the GI50 is 0.351 µM in assay [1]; 0.398 µM in [2]; 0.392 µM in [3]; 0.103 µM in assay [4]; 0.145 µM in assay [5]; 0.102 µM in assay [6]. Also, the results for the GI50 in assay [7], in assay [9] and in assay [10] were 3.52 µM, 0.167 µM and 0.0878 µM, respectively. Moreover, the TGI in assay [1] amounted to 1.17 µM; in [2] it was 1.15 µM; in assay [3], 1.24 µM; in [4] it was 0.421 µM; in [5] it was 0.357 µM; in assay [6], 0.333 µM. Besides, the TGI in assay [7] worked out at 12.8 µM; in assay [9], 0.648 µM; in assay [10], 0.513 µM.
In the case of `N=C(N)c1ccc(CS(=O)(=O)F)cc1`, the GI50 in assay [1], in assay [2], in assay [3], in assay [4], in assay [5] and in [6] was over 100 µM throughout. Moreover, the GI50 in assay [7], in assay [8] and in [9] was over 100 µM in each case. Also, the TGI in assay [1], in [2], in assay [3], in assay [4], in [5] and in assay [6] was over 100 µM each time. In addition, the TGI in [7], in [8] and in assay [9] was over 100 µM in each case.
For `Cc1c(C)n(CC(O)CNC2CCCCC2C)c2ccccc12` (configuration not stated), the GI50 in [1] was 17.8 µM; in [2], 12.8 µM; in [3] it was 16 µM; in assay [4], 12.4 µM; in assay [5], 17.9 µM; in [6], 2.21 µM. Besides, the GI50 in assay [7] was 18.2 µM; in assay [8], 16.4 µM; in assay [9], 12.6 µM. The TGI in assay [1] came out at 31.6 µM; in assay [2], 25.4 µM; in assay [3], 30.1 µM; in [4], 24.9 µM; in assay [5], 35 µM; in assay [6] it was 4.82 µM. Besides, the TGI in assay [7] was 32.9 µM; in assay [8], 29.9 µM; in [9], 26.5 µM.
